Data published in publication PMC7558026, “Exploring and applying the substrate promiscuity of a C-glycosyltransferase in the chemo-enzymatic synthesis of bioactive C-glycosides” (Nature Communications, 2020).
Changes are numbered by the printed parent chain. “And” between values parts separate entries of the source, which are not always exact repeats. Equal values may be shown once. Each block holds one compound with its values, some of them ahead of it.

Tests used:
[1] = molecular target: AbCGT (Aloe vera, UniProt A0A7G9P699); test: Glycosyltransferase activity assay, purified AbCGT (wild type) with aglycon acceptors and UDP-Glc; format: biochemical, Aloe barbadensis; details: for conversion rates, O,N,S-glycosylation / conversion rates, di-C-glycosylation / conversion rates, mono-C-glycosylation: aglycon acceptor with UDP-Glc, pH 7.4, 30 °C, up to 12 h
Sequence of AbCGT (A0A7G9P699 entry or part of it): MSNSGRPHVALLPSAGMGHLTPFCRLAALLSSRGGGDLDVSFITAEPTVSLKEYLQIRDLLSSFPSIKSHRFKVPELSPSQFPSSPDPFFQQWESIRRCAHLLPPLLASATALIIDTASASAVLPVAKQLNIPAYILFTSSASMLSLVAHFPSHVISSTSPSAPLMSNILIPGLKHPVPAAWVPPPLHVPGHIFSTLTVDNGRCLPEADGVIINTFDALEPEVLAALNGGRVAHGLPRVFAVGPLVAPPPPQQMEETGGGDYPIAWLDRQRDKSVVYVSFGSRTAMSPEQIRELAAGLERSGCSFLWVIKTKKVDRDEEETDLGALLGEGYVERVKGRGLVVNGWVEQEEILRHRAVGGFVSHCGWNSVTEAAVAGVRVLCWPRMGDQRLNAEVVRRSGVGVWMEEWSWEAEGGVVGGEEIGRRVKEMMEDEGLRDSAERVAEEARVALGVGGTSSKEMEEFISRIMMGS
Method: Due to the instability of some acceptors in the buffer of pH 11.0, the reactions were performed under the physiological conditions (pH 7.4, 30 °C) to compare the catalytic activities of AbGT27 with different substrates under the same conditions. The reactions were performed at 30 °C for up to 12 h and terminated by the addition of 200 μL of ice-cold methanol. Subsequently, samples were centrifuged at 15,000 × g for 30 min to collect the supernatant, and aliquots were analyzed by HPLC-UV/ESIMS. […] The gradient programs were used for the analysis of the reactions (Supplementary Table 6). The conversion rates of the enzyme reactions were calculated from peak areas of glycosylated products and substrates as analyzed by HPLC. To facilitate inferential statistical analysis, three parallel assays were routinely performed; the means ± SD from triplicate analyses are reported here.

[2] = molecular target: T1, AbCGT V183D (Aloe vera, UniProt A0A7G9P699, V183D); test: Glycosyltransferase activity of AbCGT variant V183D; format: biochemical, Aloe barbadensis
T1 sequence (A0A7G9P699 1-470 V183D): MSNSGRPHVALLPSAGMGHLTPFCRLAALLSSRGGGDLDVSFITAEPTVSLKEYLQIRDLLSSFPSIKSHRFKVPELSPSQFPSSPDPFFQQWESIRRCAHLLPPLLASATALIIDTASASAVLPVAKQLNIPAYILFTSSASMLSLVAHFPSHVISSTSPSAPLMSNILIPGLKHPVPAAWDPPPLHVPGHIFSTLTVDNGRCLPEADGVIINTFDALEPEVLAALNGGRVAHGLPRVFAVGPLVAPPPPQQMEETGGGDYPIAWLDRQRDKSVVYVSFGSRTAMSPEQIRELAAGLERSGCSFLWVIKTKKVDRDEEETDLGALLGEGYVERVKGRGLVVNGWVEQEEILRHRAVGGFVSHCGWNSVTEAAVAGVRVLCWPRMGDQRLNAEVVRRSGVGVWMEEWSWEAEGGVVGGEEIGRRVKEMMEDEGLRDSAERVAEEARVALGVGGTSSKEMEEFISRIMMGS
Method: (§1) The reaction mixture contained 0.5 mM sugar donors (1.0 mM for di-glycosylation), 0.25 mM aglycons, 50 mM Tris-HCl (pH 7.4), and 50‒100 μg of purified AbCGT in a final volume of 100 μL. Due to the instability of some acceptors in the buffer of pH 11.0, the reactions were performed under the physiological conditions (pH 7.4, 30 °C) to compare the catalytic activities of AbGT27 with different substrates under the same conditions. The reactions were performed at 30 °C for up to 12 h and terminated by the addition of 200 μL of ice-cold methanol. Subsequently, samples were centrifuged at 15,000 × g for 30 min to collect the supernatant, and aliquots were analyzed by HPLC-UV/ESIMS. HPLC analysis was performed on a Shiseido CAPCELL PAK C18 MG III column (250 mm × 4.6 mm I.D., 5 μm, Shiseido Co., Ltd., Japan) at a flow rate of 1 mL min^‒1. The mobile phase was a gradient elution of solvents A (0.1% formic acid aqueous solution) and B (methanol). The gradient programs were used for the analysis of the reactions (Supplementary Table 6). The conversion rates of the enzyme reactions were calculated from peak areas of glycosylated products and substrates as analyzed by HPLC. To facilitate inferential statistical analysis, three parallel assays were routinely performed; the means ± SD from triplicate analyses are reported here.
(§2) Site-saturation mutagenesis of AbCGT at residue 183 was performed by PCR using pET28a-AbCGT as a template and the corresponding degenerate primers, which are listed in Supplementary Table 5. PCR products were purified and transformed into Trans1-T1 (DE3) E. coli. The sequences of pET28a-AbCGT mutants were confirmed by sequencing, and transformed into Transetta (DE3) E. coli for heterologous expression following protein purification.

[3] = molecular target: T2, AbCGT V183E (Aloe vera, UniProt A0A7G9P699, V183E); test: Glycosyltransferase activity of AbCGT variant V183E; format: biochemical, Aloe barbadensis
T2 sequence (A0A7G9P699 1-470 V183E): T1 sequence (A0A7G9P699 1-470 V183D) with D183E
Method: as §1, §2

[4] = molecular target: T3, SGLT2 (Homo sapiens, UniProt P31639); test: 1-NBDG uptake in HEK293 cells stably expressing SGLT2; format: cell-based; details: HEK293, compound at 10 μM; triplicate; read-out: SGLT2 inhibitory rates
T3 construct: Human full-length SGLT2 cDNA (NM_003041.3) was synthesized; expressed in transfected cells; host or cells: HEK293, retroviral transduction with pMSCVpuro-SGLT2, puromycin selected
T3 sequence (P31639 1-672): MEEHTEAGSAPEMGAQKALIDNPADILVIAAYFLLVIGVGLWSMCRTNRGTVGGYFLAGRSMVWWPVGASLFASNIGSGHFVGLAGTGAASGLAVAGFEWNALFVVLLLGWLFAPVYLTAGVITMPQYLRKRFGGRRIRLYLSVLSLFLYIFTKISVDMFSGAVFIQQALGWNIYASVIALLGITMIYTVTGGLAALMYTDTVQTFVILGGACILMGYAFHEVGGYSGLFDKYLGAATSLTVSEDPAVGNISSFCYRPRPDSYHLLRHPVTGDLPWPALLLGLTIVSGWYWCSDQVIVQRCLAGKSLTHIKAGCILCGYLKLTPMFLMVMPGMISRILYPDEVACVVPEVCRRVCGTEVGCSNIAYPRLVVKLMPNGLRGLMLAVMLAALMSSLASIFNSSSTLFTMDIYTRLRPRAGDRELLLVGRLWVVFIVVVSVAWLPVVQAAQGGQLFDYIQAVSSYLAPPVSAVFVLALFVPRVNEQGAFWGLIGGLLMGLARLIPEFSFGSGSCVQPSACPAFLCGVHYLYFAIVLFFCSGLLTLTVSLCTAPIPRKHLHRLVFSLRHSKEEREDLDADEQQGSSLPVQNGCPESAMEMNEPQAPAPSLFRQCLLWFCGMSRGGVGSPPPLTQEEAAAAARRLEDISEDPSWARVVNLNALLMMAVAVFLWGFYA

[5] = system: E. coli-AbCGT; test: Glycosylation by whole-cell biocatalyst E. coli-AbCGT; format: cell-based; details: fig. 2c, 30 °C, M9 medium, 12 h, 0.25 mM acceptor; Reaction-1 to -3
Method: The induced cells of E. coli-AbCGT were harvested by centrifugation at 3000 × g for 5 min at 4 °C and washed with ddH2O. Pellets were resuspended by M9 minimal medium containing 2% glucose to appropriate cell density (OD600 = 3.0). Prepared whole-cell biocatalyst of E. coli-AbCGT (500 μL) was then added to 2-mL tubes containing various acceptors at a concentration of 0.25 mM. The mixture was incubated at 30 °C for 12 h with shaking (200 rpm). The reactions were analyzed using GT activity assays as described above. For quantification, three parallel assays were routinely carried out.

SMILES: COc1cc(O)c(C(C)=O)c(OC)c1 [Compound 14]
conversion rates, O,N,S-glycosylation ([1]; Reaction-1 to -3): 2% and 1.9%
conversion rates, di-C-glycosylation ([1]; Reaction-1 to -3): 0%
conversion rates, mono-C-glycosylation ([1]; Reaction-1 to -3): 0%
WT/yield of C-glycoside(%) ([1]; reaction-1): 0%
WT/yield of O-glycoside(%) ([1]; reaction-1): 1.5%
WT/yield of C-glycoside(%) ([1]; reaction-2): 0%
WT/yield of O-glycoside(%) ([1]; reaction-2): 1.6%
WT/yield of C-glycoside(%) ([1]; reaction-3): 0%
WT/yield of O-glycoside(%) ([1]; reaction-3): 2.8%
V183D/yield of C-glycoside(%) ([2]; reaction-1): 0%
V183D/yield of O-glycoside(%) ([2]; reaction-1): 0%
V183D/yield of C-glycoside(%) ([2]; reaction-2): 0%
V183D/yield of O-glycoside(%) ([2]; reaction-2): 0%
V183D/yield of C-glycoside(%) ([2]; reaction-3): 0%
V183D/yield of O-glycoside(%) ([2]; reaction-3): 0%
V183E/yield of C-glycoside(%) ([3]; reaction-1): 8%
V183E/yield of O-glycoside(%) ([3]; reaction-1): 0%
V183E/yield of C-glycoside(%) ([3]; reaction-2): 7.9%
V183E/yield of O-glycoside(%) ([3]; reaction-2): 0%
V183E/yield of C-glycoside(%) ([3]; reaction-3): 7.5%
V183E/yield of O-glycoside(%) ([3]; reaction-3): 0%

inhibition at 10 µM [4]: 52.2%
SMILES: O=C(CCc1ccc(O)cc1)c1c(O)cc(O)c([C@@H]2O[C@H](CO)[C@@H](O)[C@H](O)[C@H]2O)c1O [Compound 17a]

inhibition at 10 µM [4]: 2.8%
SMILES: O=C(CCc1ccc(O)cc1)c1c(O)c([C@@H]2O[C@H](CO)[C@@H](O)[C@H](O)[C@H]2O)c(O)c([C@@H]2O[C@H](CO)[C@@H](O)[C@H](O)[C@H]2O)c1O [Compound 17aa]

inhibition at 10 µM [4]: -3.1%
SMILES: O=C(CCc1ccc(O)cc1)c1c(O)cc(O)c(C2OC(CO)C(O)C(O)C2O)c1O [Compound 17b, phloretin-3′-C-β-D-galactoside]

inhibition at 10 µM [4]: 1.7%
SMILES: O=C(CCc1ccc(O)cc1)c1c(O)cc(O)c(C2OCC(O)C(O)C2O)c1O [Compound 17c, phloretin-3′-C-β-D-xyloside]

inhibition at 10 µM [4]: 0.2%
conversion rates, O,N,S-glycosylation ([1]; Reaction-1 to -3): 0%
conversion rates, di-C-glycosylation ([1]; Reaction-1 to -3): 0%
conversion rates, mono-C-glycosylation ([1]; Reaction-1 to -3): 100%
SMILES: COc1ccc(Cc2c(O)cc(O)cc2O)cc1OC [Compound 20]

inhibition at 10 µM [4]: 13.6%
SMILES: COc1ccc(Cc2c(O)cc(O)c([C@@H]3O[C@H](CO)[C@@H](O)[C@H](O)[C@H]3O)c2O)cc1OC [Compound 20a]

inhibition at 10 µM [4]: 1.8%
conversion rates, O,N,S-glycosylation ([1]; Reaction-1 to -3): 0%
conversion rates, di-C-glycosylation ([1]; Reaction-1 to -3): 0%
conversion rates, mono-C-glycosylation ([1]; Reaction-1 to -3): 100%
SMILES: COc1ccc(CCc2ccc(O)cc2O)cc1 [Compound 21]

inhibition at 10 µM [4]: 22.7%
SMILES: COc1ccc(CCc2ccc(O)c([C@@H]3O[C@H](CO)[C@@H](O)[C@H](O)[C@H]3O)c2O)cc1 [Compound 21a]

SMILES: Oc1cc(O)cc(OCCCCCCc2ccccc2)c1 [Compound 22]
conversion rates, O,N,S-glycosylation ([1]; Reaction-1 to -3): 33% and 31.4% and 25.1%
conversion rates, di-C-glycosylation ([1]; Reaction-1 to -3): 0%
conversion rates, mono-C-glycosylation ([1]; Reaction-1 to -3): 8.5% and 9.9% and 11.3%
WT/yield of C-glycoside(%) ([1]; reaction-1): 9.6%
WT/yield of O-glycoside(%) ([1]; reaction-1): 28.2%
WT/yield of C-glycoside(%) ([1]; reaction-2): 11%
WT/yield of O-glycoside(%) ([1]; reaction-2): 26.9%
WT/yield of C-glycoside(%) ([1]; reaction-3): 9.5%
WT/yield of O-glycoside(%) ([1]; reaction-3): 34.6%
V183D/yield of C-glycoside(%) ([2]; reaction-1): 0%
V183D/yield of O-glycoside(%) ([2]; reaction-1): 0%
V183D/yield of C-glycoside(%) ([2]; reaction-2): 0%
V183D/yield of O-glycoside(%) ([2]; reaction-2): 0%
V183D/yield of C-glycoside(%) ([2]; reaction-3): 0%
V183D/yield of O-glycoside(%) ([2]; reaction-3): 0%
V183E/yield of C-glycoside(%) ([3]; reaction-1): 0%
V183E/yield of O-glycoside(%) ([3]; reaction-1): 0%
V183E/yield of C-glycoside(%) ([3]; reaction-2): 0%
V183E/yield of O-glycoside(%) ([3]; reaction-2): 0%
V183E/yield of C-glycoside(%) ([3]; reaction-3): 0%
V183E/yield of O-glycoside(%) ([3]; reaction-3): 0%

SMILES: CCc1ccc(O)cc1O [Compound 27]
conversion rates, Purified Enzyme ([1]; fig. 2b, purified AbCGT, redesigned substrates, Reaction-1 to -3): 5.7% and 8.5% and 6.8%
conversion rates, Whole cells [5]: 0%
